Drawing on patent US10085957B2, “Benzoic acid compounds for reducing uric acid” (Wellstat Therapeutics Corporation, priority 2010, dated 2018), this text covers inhibition for six molecules.

SMILES strings stand for the structures. Read-outs that look alike come from different tables or passages of the source.

In this assay the target is T1, human URAT1 (Homo sapiens, UniProt Q96S37).
T1 construct: The full-length hURAT1 cDNA was obtained from the vector pCMV6-XL5 and subcloned into the expression vector pCMV6-Neo
T1 sequence (Q96S37 1-553): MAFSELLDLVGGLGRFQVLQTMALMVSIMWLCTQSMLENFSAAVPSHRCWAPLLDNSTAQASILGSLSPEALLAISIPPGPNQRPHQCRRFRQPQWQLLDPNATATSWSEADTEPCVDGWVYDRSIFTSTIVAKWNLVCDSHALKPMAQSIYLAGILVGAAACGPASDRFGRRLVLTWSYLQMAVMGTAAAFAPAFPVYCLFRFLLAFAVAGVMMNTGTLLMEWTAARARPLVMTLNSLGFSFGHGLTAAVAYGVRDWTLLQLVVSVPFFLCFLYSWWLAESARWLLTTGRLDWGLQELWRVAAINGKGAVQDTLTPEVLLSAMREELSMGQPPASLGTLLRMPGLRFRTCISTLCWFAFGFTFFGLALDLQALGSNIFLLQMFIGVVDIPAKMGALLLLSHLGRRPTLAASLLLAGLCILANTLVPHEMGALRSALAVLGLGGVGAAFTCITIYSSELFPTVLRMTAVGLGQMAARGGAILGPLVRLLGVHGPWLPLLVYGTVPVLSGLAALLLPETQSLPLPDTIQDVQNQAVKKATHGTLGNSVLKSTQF
Nature of the assay: URAT1 inhibition assay: [8-14C] urate uptake in hURAT1-HEK cells. It counts as cell-based. Here is the method: An in vitro URAT1 assay is useful for identifying compounds with potential activity in lowering serum uric acid. A suitable assay involves transfection of cells (e.g. human embryonic kidney cells; “HEK”) with a vector encoding human URAT1, followed by determination of the ability of transfected cells to take up radiolabeled uric acid. The activity of compounds as URAT1 inhibitors is evaluated by their ability to block uric acid uptake by transfected cells.
Plasmid vector pCMV6-XL5 containing hURAT1 cDNA (Cat. No. SC125624) and the expression vector pCMV6-Neo (Cat. No.pCMVNEO) were obtained from OriGene Technologies, Inc. The full-length hURAT1 cDNA was obtained from the vector pCMV6-XL5 and subcloned into the expression vector pCMV6-Neo to create the hURAT1 expression plasmid pCMV6-hURAT1. The sequences were verified by automatic DNA sequencing.
Human embryonic kidney 293 (HEK) cells (ATTCC, Cat No. CRL-1573) were cultured in EMEM supplemented with 10% FBS and 2 mM L-glutamine and incubated at 37° C. and 5% CO2. For transfection experiments, cells were plated on 60 mm dishes in 1 ml media per dish. After an 18-24 hour incubation, cells were transfected with plasmid pCMV6-hURAT1 or the expression vector pCMV6-Neo, using the Lipofectin trasfection agent following the manufacturer's instructions (Invitrogen, Cat.No. 18292). After transfection cells were grown in EMEM media for 72 hours and then by adding lmg/ml Geneticin (GIBCO, Cat. No 10131) stable transfectants were selected. Stable transfectants expressing hURAT1 (herein after referred as hURAT1-HEK cells) or cells having only the expression vector pCMV6-Neo (herein after referred as mock-HEK cells) were verified using reverse transcription polymerase chain reaction (RT-PCR) methods.
hURAT1-HEK cells and mock-HEK cells were plated in poly-D-Lysine Cell culture 24 well plates (Becton Dickinson, Cat. No. 354414) at a concentration of 3×10^5 in EMEM medium and incubated overnight. Reaction solutions containing the [8-^14C] urate (55 mCi/mmol) at a final concentration of 50 μM were prepared with or without test compounds in Hanks' balanced salt solution (HBSS) containing 125 mM sodium gluconate, 4.8 mM potassium gluconate, 1.3 mM calcium, 5.6 mM glucose, 1.2 mM magnesium sulfate, 1.2 mM KH2PO4 and 25 mM HEPES (pH7.4). Before the uptake assay started, the culture medium was removed and the cells were incubated for 5 min in 0.6 ml of HBSS. After that HBSS was removed, the prepared reaction solutions were added into each well and incubated for 5 min at room temperature. Then the reaction solution was removed, cells were washed twice with 0.6 ml of cold HBSS and lysed with 0.2 ml of 0.1 M NaOH for 20 min. The cell lysates were transferred into the scintillation vials containing 1 ml of scintillation fluid (Opti Phase SuperMIX, PerkinElmer, Cat No. 1200-439) and the radioactivity was counted in the Microbeta counter (1450, Wallac Jet, PerkinElmer). Test compounds were dissolved in DMSO and the same concentration of DMSO was added into the wells of mock-HEK cells and the hURAT1-HEK cells that didn't contain test compounds. For each test compound, the uptake assay was performed 2 times and carried out in triplicate. Urate uptake of the cells for each test condition was presented as the average percent inhibition in comparison to the DMSO control. The radioactivity values obtained for the wells that contained DMSO were taken as 100% uptake of the cells. The observed concentration-percent inhibition data were fitted to a sigmoidal concentration-effect model, where: % Inhibition=(100*Conc^Slope)/(IC50^Slope+Conc^Slope)
IC50 and slope estimates with their 95% confidence limits were determined by a non-linear, least-squares regression analysis using the Data Analysis Toolbox™ (MDL Information Systems, San Leandro, Calif., USA). […]

Setting [1] is: 10 μM test compound, 14C urate uptake in hURAT1-HEK cells, vs DMSO control, read-out: % of inhibition (at 10 μM).

The term inhibition denotes the drop in the measured response relative to a control, in per cent. Regarding `COc1ccc(C(=O)O)cc1OCc1c(C)cccc1C` [Compound FC, 3-(2,6-dimethylbenzyloxy)-4-methoxybenzoic acid], the inhibition at 10 µM came out at 89.2% under setting [1] and 93.3% (concentration 10 μM, urate uptake in hURAT1-HEK cells (Table 2), read-out: % of inhibition Avg.). For the same molecule, the inhibition at 0.05 µM (concentration 0.05 μM, urate uptake in hURAT1-HEK cells) came to 7.08%. Moreover, where the note is “concentration 0.1 μM, urate uptake in hURAT1-HEK cells”, the inhibition at 0.1 µM is -1.08%. The inhibition at 0.5 µM (concentration 0.5 μM, urate uptake in hURAT1-HEK cells) is 34.6%. Besides, for the setting “concentration 1 μM, urate uptake in hURAT1-HEK cells”, the inhibition at 1 µM was found to be 49.8%. In addition, the inhibition at 100 µM (concentration 100 μM, urate uptake in hURAT1-HEK cells) came out at 97.8%.
Take `Cc1ccc(CC(=O)O)cc1OCc1c(C)cccc1C` [EH, 2-(3-(2,6-Dimethylbenzyloxy)-4-methylphenyl)acetic acid, reference compound]: under setting [1], the inhibition at 10 µM worked out at 95.6%.
On to `Cc1ccc(C(=O)O)cc1OCc1c(C)cccc1C` [FA, 3-(2,6-dimethylbenzyloxy)-4-methylbenzoic acid], for which the inhibition at 10 µM under setting [1] turned out to be 83.2%.
Still for that read-out and setting: in the case of `Cc1cccc(C)c1COc1cc(C(=O)O)ccc1[N+](=O)[O-]` [FB, 3-(2,6-dimethylbenzyloxy)-4-nitrobenzoic acid] it was 81%; in that of `Cc1cccc(C)c1COc1cc(C(=O)O)ccc1F` [FD, 3-(2,6-dimethylbenzyloxy)-4-fluorobenzoic acid], 68.1%; in that of `Cc1cccc(C)c1COc1cc(C(=O)O)ccc1N` [FE, 4-amino-3-(2,6-dimethylbenzyloxy)benzoic acid], 10%.
